Laboratory results from the supplement of paper PMC10307832.

Experiments:
Test in all cases: relative viability (nuclei count vs DMSO), 5 days (fraction); higher = more cells survive
MK-2206 + Vorinostat = compound: NC1(c2ccc(-c3nc4ccn5c(=O)[nH]nc5c4cc3-c3ccccc3)cc2)CCC1 [MK-2206] + O=C(CCCCCCC(=O)Nc1ccccc1)NO [Vorinostat] (partner 1 µM)
In short: (§1)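 Lung cancer cell lines were pin-tool dosed in 1536-well plates on the day after seeding, with either a lone drug or a fixed anchor-drug dose plus five library-drug doses (not always all listed) in √10 steps. Nuclei were counted on 4× images after 5 days. Relative viability is the ratio of treated-well to vehicle-well nuclei counts, with each value a median of duplicate plates.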

Pictilisib + Lapatinib = compound: CS(=O)(=O)N1CCN(Cc2cc3nc(-c4cccc5[nH]ncc45)nc(N4CCOCC4)c3s2)CC1 [Pictilisib] + CS(=O)(=O)CCNCc1ccc(-c2ccc3ncnc(Nc4ccc(OCc5cccc(F)c5)c(Cl)c4)c3c2)o1 [Lapatinib] (partner 2 µM)
In short: as §1

Pictilisib = compound: CS(=O)(=O)N1CCN(Cc2cc3nc(-c4cccc5[nH]ncc45)nc(N4CCOCC4)c3s2)CC1 [Pictilisib]
In short: (§2)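 In 1536-well plates, lung cancer cell lines rested overnight at 37 °C before five library-drug doses (not always all listed), √10 apart, were pinned onto vehicle-anchored plates. Nuclei were counted with MetaXpress from 4× Hoechst images taken after 5 days without medium change. Viability compares treated-well with vehicle-well nuclei as a median over plates, and plates needed control CV below 25% plus at least one doubling to pass.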

MK-2206 = compound: NC1(c2ccc(-c3nc4ccn5c(=O)[nH]nc5c4cc3-c3ccccc3)cc2)CCC1 [MK-2206]
In short: as §2

Row | Cell Line | relative viability (MK-2206 + Vorinostat; first compound 0.01 µM) | relative viability (MK-2206 + Vorinostat; first compound 0.03162 µM) | relative viability (MK-2206 + Vorinostat; first compound 0.3162 µM) | relative viability (MK-2206 + Vorinostat; first compound 1 µM) | relative viability (Pictilisib + Lapatinib; first compound 0.02 µM) | relative viability (Pictilisib + Lapatinib; first compound 0.06325 µM) | relative viability (Pictilisib + Lapatinib; first compound 0.6325 µM) | relative viability (Pictilisib + Lapatinib; first compound 2 µM) | relative viability (Pictilisib; 0.02 µM) | relative viability (Pictilisib; 0.06325 µM) | relative viability (Pictilisib; 0.6325 µM) | relative viability (Pictilisib; 1 µM, anchor plate) | relative viability (Pictilisib; 2 µM) | relative viability (MK-2206; 0.01 µM) | relative viability (MK-2206; 0.03162 µM) | relative viability (MK-2206; 0.3162 µM) | relative viability (MK-2206; 1 µM)
1 | HOP-62 | 0.491 | 0.632 | 0.492 | 0.656 | 1.15 | 1.44 | 0.931 | 0.742 | 1.04 | 1.07 | 0.97 | 0.743 | 0.941 | 0.91 | 1.08 | 0.993 | 0.918
2 | HCC-15 | 0.821 | 0.828 | 0.78 | 0.854 | 0.936 | 0.91 | 0.789 | 0.692 | 1.1 | 1.02 | 0.866 | 0.737 | 0.666 | 0.996 | 1.06 | 0.866 | 0.923
3 | HARA | 0.391 | 0.539 | 0.455 | 0.59 | 0.703 | 0.724 | 0.378 | 0.354 | 1.05 | 1.13 | 0.846 | 0.401 | 0.555 | 0.972 | 1.08 | 1.08 | 0.832
4 | EBC-1 | – | – | – | – | 0.237 | 0.208 | 0.237 | 0.204 | 0.943 | 1.14 | 0.868 | 0.409 | 0.272 | 0.986 | 1.01 | 0.819 | 0.29
5 | NCI-H1703 | – | – | – | – | 0.939 | 1.33 | 0.405 | 0.247 | 0.929 | 0.806 | 0.408 | 0.244 | 0.208 | 0.985 | 0.868 | 0.825 | 0.784
6 | NCI-H1563 | – | – | – | – | 1 | 0.948 | 0.696 | 0.564 | 1.01 | 0.929 | 0.668 | 0.626 | 0.533 | 0.925 | 0.975 | 0.885 | 0.764
7 | NCI-H1299 | – | – | – | – | 1.02 | 1.01 | 1 | 1.01 | 1.06 | 1.05 | 1.06 | 0.773 | 0.991 | 1.02 | 1.02 | 1.04 | 1.01
8 | A549 | – | – | – | – | 0.93 | 0.906 | 0.595 | 0.606 | 0.992 | 0.97 | 0.731 | 0.517 | 0.437 | 1.02 | 1.07 | 0.921 | 0.877
9 | NCI-H522 | 1.07 | 1.02 | 0.828 | 0.836 | – | – | – | – | 1 | 1.05 | 0.768 | – | 0.648 | 0.916 | 1.01 | 0.885 | 0.696
10 | NCI-H1648 | 0.475 | 0.422 | 0.445 | 0.432 | – | – | – | – | 0.783 | 0.906 | 0.39 | – | 0.318 | 0.873 | 1.06 | 1.06 | 1.05
11 | NCI-H2342 | 0.841 | 0.802 | 0.821 | 0.733 | – | – | – | – | 0.949 | 0.931 | 0.838 | – | 0.531 | 1.05 | 0.959 | 0.892 | 0.815
12 | Calu-6 | – | – | – | – | 1.15 | 1.19 | 0.898 | 0.911 | 1.05 | 1.04 | 1.01 | 0.907 | 0.792 | 1.02 | 1.06 | 1.01 | 0.962
